According to US20230416248A1, “COMPOUNDS AND USES THEREOF” (Foghorn Therapeutics Inc., priority 2020, published 2023):
Like-named read-outs stand apart in the source and are kept apart here.

Legend:
[1] = target: T1, BRM (Homo sapiens, UniProt P51531); assay: ATPase catalytic activity of BRM, ADP-Glo in vitro biochemical assay; conditions: for IC50: 30 nM BRM, 400 μM ATP; for Ratio* (BRG1 IC50 (μM) divided by BRM IC50 (μM)): selectivity ratio BRG1 IC50 / BRM IC50
T1 construct: made in house; host or cells: High Five insect cells
T1 sequence (P51531 whole entry): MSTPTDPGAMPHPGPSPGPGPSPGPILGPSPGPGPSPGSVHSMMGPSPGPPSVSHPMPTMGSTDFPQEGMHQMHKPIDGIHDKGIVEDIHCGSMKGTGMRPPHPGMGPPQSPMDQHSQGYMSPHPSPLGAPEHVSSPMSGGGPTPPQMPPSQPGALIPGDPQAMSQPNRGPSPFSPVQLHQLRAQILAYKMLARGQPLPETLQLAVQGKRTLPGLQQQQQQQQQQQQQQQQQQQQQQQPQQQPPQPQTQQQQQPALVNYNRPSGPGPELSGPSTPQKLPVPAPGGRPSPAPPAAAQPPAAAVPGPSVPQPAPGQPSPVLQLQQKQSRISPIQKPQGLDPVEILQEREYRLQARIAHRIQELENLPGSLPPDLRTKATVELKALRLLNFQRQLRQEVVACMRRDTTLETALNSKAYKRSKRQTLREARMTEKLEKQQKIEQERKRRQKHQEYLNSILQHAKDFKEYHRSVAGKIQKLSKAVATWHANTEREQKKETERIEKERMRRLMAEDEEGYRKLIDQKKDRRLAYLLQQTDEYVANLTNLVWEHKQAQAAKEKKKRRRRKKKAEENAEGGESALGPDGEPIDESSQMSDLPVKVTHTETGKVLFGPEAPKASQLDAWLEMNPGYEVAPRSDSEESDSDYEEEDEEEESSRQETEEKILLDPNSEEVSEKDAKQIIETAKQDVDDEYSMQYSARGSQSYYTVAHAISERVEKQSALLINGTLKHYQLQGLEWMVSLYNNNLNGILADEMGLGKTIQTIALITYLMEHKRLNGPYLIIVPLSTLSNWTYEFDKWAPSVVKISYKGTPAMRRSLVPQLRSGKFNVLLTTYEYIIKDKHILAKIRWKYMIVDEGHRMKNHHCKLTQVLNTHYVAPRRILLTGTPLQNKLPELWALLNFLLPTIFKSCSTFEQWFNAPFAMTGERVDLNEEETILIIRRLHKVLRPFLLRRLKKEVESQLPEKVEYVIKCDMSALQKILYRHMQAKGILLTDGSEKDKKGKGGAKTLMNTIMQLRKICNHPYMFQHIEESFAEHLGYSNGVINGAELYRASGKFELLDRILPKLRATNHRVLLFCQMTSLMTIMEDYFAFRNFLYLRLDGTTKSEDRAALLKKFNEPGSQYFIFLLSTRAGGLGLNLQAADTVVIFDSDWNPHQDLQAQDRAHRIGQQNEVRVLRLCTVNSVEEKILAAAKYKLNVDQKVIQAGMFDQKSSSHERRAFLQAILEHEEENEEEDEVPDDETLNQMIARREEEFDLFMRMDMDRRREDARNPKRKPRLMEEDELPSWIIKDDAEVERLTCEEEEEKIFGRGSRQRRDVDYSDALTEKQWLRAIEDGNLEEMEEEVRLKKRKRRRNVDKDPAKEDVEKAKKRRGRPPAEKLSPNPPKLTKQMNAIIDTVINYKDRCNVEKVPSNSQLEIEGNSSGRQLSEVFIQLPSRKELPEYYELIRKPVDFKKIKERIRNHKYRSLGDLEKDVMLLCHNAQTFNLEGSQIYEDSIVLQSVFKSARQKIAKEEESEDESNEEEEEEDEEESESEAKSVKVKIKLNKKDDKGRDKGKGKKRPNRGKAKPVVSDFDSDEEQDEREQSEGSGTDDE
Summary of the method: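 Recombinant BRM (30 nM) hydrolysed 400 μM ATP with 20 nM salmon sperm DNA in pH 8 Tris buffer containing 20 mM MgCl2, 50 mM NaCl, 0.1% Tween-20 and 1 mM DTT, 1 h at room temperature. ADP formed was quantified by ADP-Glo luminescence.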

[2] = target: T2, BRG-1 (Homo sapiens, UniProt P51532); assay: ATPase catalytic activity of BRG-1, ADP-Glo in vitro biochemical assay; conditions: 30 nM BRG-1, 400 μM ATP, read-out: BRG1 IC50
T2 construct: made in house; host or cells: High Five insect cells
T2 sequence (P51532 whole entry): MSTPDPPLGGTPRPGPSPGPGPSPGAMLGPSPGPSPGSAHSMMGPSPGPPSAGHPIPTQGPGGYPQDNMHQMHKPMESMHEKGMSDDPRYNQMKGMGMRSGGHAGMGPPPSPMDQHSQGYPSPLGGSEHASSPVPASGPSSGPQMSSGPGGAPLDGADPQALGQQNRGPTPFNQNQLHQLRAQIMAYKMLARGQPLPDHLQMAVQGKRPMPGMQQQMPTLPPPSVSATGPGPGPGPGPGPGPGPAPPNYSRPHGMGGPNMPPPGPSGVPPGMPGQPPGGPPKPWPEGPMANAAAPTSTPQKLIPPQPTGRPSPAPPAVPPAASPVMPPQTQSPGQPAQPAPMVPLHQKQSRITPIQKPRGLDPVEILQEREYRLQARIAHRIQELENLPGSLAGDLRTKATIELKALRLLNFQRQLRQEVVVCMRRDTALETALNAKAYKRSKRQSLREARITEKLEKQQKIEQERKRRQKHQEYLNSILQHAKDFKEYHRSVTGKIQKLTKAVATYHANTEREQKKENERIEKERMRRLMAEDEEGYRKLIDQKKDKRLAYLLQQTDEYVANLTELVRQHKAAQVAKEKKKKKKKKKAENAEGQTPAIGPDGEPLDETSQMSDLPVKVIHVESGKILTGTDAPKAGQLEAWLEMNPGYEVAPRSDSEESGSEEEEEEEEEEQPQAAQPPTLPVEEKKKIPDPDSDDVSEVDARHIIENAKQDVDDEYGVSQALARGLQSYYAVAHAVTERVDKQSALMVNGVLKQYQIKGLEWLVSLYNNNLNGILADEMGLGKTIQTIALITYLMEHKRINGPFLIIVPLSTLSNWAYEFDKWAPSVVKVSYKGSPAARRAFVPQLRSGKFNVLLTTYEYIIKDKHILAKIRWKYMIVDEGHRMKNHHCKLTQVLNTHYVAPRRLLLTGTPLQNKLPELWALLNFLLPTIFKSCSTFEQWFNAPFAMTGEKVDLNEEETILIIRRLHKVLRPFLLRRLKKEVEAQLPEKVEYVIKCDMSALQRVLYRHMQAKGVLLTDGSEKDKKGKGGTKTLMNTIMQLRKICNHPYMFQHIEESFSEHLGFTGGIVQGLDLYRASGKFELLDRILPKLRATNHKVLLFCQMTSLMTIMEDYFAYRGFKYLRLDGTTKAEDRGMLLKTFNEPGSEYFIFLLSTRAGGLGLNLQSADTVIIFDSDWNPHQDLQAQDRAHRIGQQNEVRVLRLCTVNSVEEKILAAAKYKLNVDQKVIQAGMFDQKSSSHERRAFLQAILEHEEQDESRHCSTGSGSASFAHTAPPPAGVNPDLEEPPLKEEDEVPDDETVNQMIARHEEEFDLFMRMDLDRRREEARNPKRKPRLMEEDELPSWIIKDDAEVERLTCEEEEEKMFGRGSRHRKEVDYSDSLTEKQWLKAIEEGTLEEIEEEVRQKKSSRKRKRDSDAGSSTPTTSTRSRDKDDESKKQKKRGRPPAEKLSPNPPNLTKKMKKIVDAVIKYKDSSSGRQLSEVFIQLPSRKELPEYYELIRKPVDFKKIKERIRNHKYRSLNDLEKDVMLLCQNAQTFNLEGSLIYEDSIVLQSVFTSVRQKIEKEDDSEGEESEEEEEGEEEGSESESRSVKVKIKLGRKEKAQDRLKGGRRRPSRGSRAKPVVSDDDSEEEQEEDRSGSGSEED
Summary of the method: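 Biochemical ADP-Glo assay, BRG-1. Post-reaction: ATP depletion reagent, 40 min RT; ADP→ATP conversion/detection reagent, 60 min RT; luminescence read on plate luminometer.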

[3] = ATPase catalytic activity, ADP-Glo

| IC50 ([1]; ADP-Glo ATPase assay) [nM] | Ratio* (BRG1 IC50 (μM) divided by BRM IC50 (μM)) [1] | IC50 ([2]; ADP-Glo ATPase assay) [nM] | IC50 [1, 3] [nM] | Ratio* ([1]; ratio of BRG1 IC50 to BRM IC50) | IC50 [2, 3] [nM] | Ratio* ([1]; ratio BRG1 IC50 / BRM IC50) | SMILES |
| --- | --- | --- | --- | --- | --- | --- | --- |
| 18.1 | 10.70 | 194 | – | – | – | – | C[C@@H]1CN(c2cccc(-c3cnc4cnc(CNC(=O)c5ccc(Cl)c(S(C)(=O)=O)c5)cc4n3)n2)C[C@H](C)O1 [Compound 41] |
| – | – | – | 11.5 | 12.06 | 138 | – | COc1cnc2c(c1)CCCN2c1ccc2cnc(CNC(=O)c3ccc4c(c3)S(=O)(=O)CCOC4)cc2n1 [Compound 565] |
| 20.6 | 20.48 | 422 | – | – | – | – | CCOc1cccc(-c2ccc3cnc(CNC(=O)c4ccc5c(c4)S(=O)(=O)CCOC5)cc3n2)n1 [Compound 239] |
| – | – | – | 20.4 | 32.29 | 658 | – | COCc1ccc2c(n1)N(c1ccc3cnc(CNC(=O)c4ccc5c(c4)S(=O)(=O)CCOC5)cc3n1)CCC2 [Compound 445] |
| – | – | – | 56.1 | 14.02 | 787 | – | C[C@@H]1CN(c2cccc(-c3ccc4cnc(CNC(=O)c5ccc6c(c5)S(=O)(=O)CC[C@H]6C)cc4n3)n2)C[C@H](C)O1 [Compound 490] |
| 24.8 | 18.33 | 455 | – | – | – | – | CCOc1cccc(-c2ccc3cnc(CNC(=O)c4cc(F)c5c(c4)S(=O)(=O)CCOC5)cc3n2)n1 [Compound 49] |
| 294 | 6.26 | 1840 | – | – | – | – | CC1CS(=O)(=O)c2cc(C(=O)NCc3cc4nc(-c5cccc(N6C[C@@H](C)O[C@@H](C)C6)n5)ccc4cn3)ccc2CO1 (stereo partly drawn) [Compound 48] |
| 14.3 | 8.51 | 122 | – | – | – | – | Cc1cc(-c2ccc3cnc(CNC(=O)c4ccc5c(c4)S(=O)(=O)CCOC5)cc3n2)nc(N2C[C@@H](C)O[C@@H](C)C2)c1 [Compound 212] |
| – | – | – | 368 | 7.55 | 2770 | – | COC[C@H]1C[C@H]1c1cccc(-c2ccc3cnc(CNC(=O)c4ccc5c(c4)S(=O)(=O)CCOC5)cc3n2)n1 [Compound 346] |
| 61.3 | – | 1090 | – | – | – | 17.84 | O=C(NCc1cc2nc(N3CCCc4ccc(C(F)CF)nc43)ccc2cn1)c1ccc2c(c1)S(=O)(=O)CCOC2 (stereo not drawn) [Compound 823] |
| 167 | 14.36 | 2400 | – | – | – | – | COc1cccc(-c2ccc3cnc(CNC(=O)c4ccc5c(c4)S(=O)(=O)CCOC5)cc3n2)c1 [Compound 265] |
| – | – | – | 283 | 15.24 | 4320 | – | CN1CC[C@H](Oc2cccc(-c3ccc4cnc(CNC(=O)c5ccc6c(c5)S(=O)(=O)CCOC6)cc4n3)n2)C1 [Compound 342] |
| – | – | – | 21.9 | 15.66 | 344 | – | COc1cccc(-c2ccc3cnc(CNC(=O)c4ccc5c(c4)S(=O)(=O)CCOC5)cc3n2)n1 [Compound 487] |
| 176 | 11.75 | 2070 | – | – | – | – | COCCNc1cccc(-c2ccc3cnc(CNC(=O)c4ccc(C(F)F)c(S(C)(=O)=O)c4)cc3n2)n1 [Compound 80] |
| – | – | – | 16.9 | 14.06 | 238 | – | C[C@@H]1CN(c2cccc(-c3ccc4cnc(CNC(=O)c5ccc6c(c5)S(=O)(=O)[C@H](C)CC6)cc4n3)n2)C[C@H](C)O1 [Compound 362] |
| 16.4 | – | 814 | – | – | – | 49.65 | O=C(NCc1cc2nc(N3CCCc4ccc(C5CCC5)nc43)ccc2cn1)c1ccc2c(c1)S(=O)(=O)CCOC2 [Compound 730] |
| 529 | 9.45 | 5000 | – | – | – | – | Cc1ccc(C(=O)NCc2cc3nc(-c4cncc(C5CC5)n4)ccc3cn2)cc1S(=O)(=O)C(C)C [Compound 279] |
| – | – | – | 290 | 4.12 | 1190 | – | O=C(NCc1cc2nc(-c3ccc4c(n3)OCCC4)ccc2cn1)c1ccc2c(c1)S(=O)(=O)CCOC2 [Compound 499] |
| 127 | 12.44 | 1570 | – | – | – | – | O=C(NCc1cc2nc(-c3cccc([C@@H]4CC4(F)F)n3)ccc2cn1)c1ccc2c(c1)S(=O)(=O)CCOC2 [Compound 270] |
| – | – | – | 9.8 | 17.38 | 170 | – | O=C(NCc1cc2nc(N3CCOc4cc(Cl)cnc43)ccc2cn1)c1ccc2c(c1)S(=O)(=O)CCOC2 [Compound 645] |
| 12 | – | 174 | – | – | – | 14.44 | COc1ccc2c(c1F)N(c1ccc3cnc(CNC(=O)c4ccc5c(c4)S(=O)(=O)CCOC5)cc3n1)CCO2 [Compound 774] |
| 59.8 | 16.01 | 958 | – | – | – | – | CC(C)c1cccc(-c2ccc3cnc(CNC(=O)c4ccc5c(c4)S(=O)(=O)CCOC5)cc3n2)n1 [Compound 289] |

| IC50 ([1]; ADP-Glo ATPase assay) [nM] | Ratio* (BRG1 IC50 (μM) divided by BRM IC50 (μM)) [1] | IC50 ([2]; ADP-Glo ATPase assay) [nM] | IC50 [1, 3] [nM] | Ratio* ([1]; ratio of BRG1 IC50 to BRM IC50) | IC50 [2, 3] [nM] | Ratio* ([1]; ratio BRG1 IC50 / BRM IC50) | SMILES |
| --- | --- | --- | --- | --- | --- | --- | --- |
| 130 | 17.98 | 2340 | – | – | – | – | CS(=O)(=O)c1cc(C(=O)NCc2cc3nc(-c4cncc(C5CC5)n4)ccc3cn2)ccc1C(F)F [Compound 231] |
| – | – | – | 1230 | 3.03 | 3730 | – | COCCN(C)c1cccc(-c2ccc3cnc(CNC(=O)c4ccc5c(c4)S(=O)(=O)CCOC5)cc3n2)c1OC [Compound 347] |
| 35.2 | 6.92 | 243 | – | – | – | – | O=C(NCc1cc2nc(-c3ccc4ccn(CC(F)F)c4n3)ccc2cn1)c1ccc2c(c1)S(=O)(=O)CCOC2 [Compound 140] |
| 20.7 | 16.32 | 337 | – | – | – | – | Cn1ccc(-c2cccc(-c3ccc4cnc(CNC(=O)c5ccc6c(c5)S(=O)(=O)CCOC6)cc4n3)c2)n1 [Compound 244] |
| 90.5 | 7.67 | 694 | – | – | – | – | COC(C)(C)CN(C)c1cccc(-c2ccc3cnc(CNC(=O)c4ccc5c(c4)S(=O)(=O)CCOC5)cc3n2)n1 [Compound 44] |
| 19 | – | 380 | – | – | – | 19.99 | O=C(NCc1cc2nc(N3CCOc4cc(C5CC5)ccc43)cnc2cn1)c1ccc2c(c1)S(=O)(=O)CCOC2 [Compound 844] |
| 43.6 | – | 231 | – | – | – | 5.30 | O=C(NCc1cc2nc(N3CCc4cc(C(F)F)cnc43)ccc2cn1)c1ccc2c(c1)S(=O)(=O)CCOC2 [Compound 720] |
| 36.6 | 22.13 | 810 | – | – | – | – | COc1nn([C@H]2C[C@H](F)C2)cc1-c1ccc2cnc(CNC(=O)c3ccc4c(c3)S(=O)(=O)CCOC4)cc2c1 [Compound 149] |
| 78.7 | 11.24 | 884 | – | – | – | – | CS(=O)(=O)c1cc(C(=O)NCc2cc3nc(-c4cccc(N5CC[C@@H]6OCC[C@H]6C5)n4)ccc3cn2)ccc1Cl [Compound 99] |
| 10.7 | 9.77 | 104 | – | – | – | – | Cc1cc2c(-c3ccc4cnc(CNC(=O)c5ccc6c(c5)S(=O)(=O)CCOC6)cc4n3)cccc2n1C [Compound 130] |
| 166 | 9.79 | 1620 | – | – | – | – | O=C(NCc1cc2nc(-c3ccnc([C@@H]4CC4(F)F)n3)ccc2cn1)c1ccc2c(c1)S(=O)(=O)CCOC2 [Compound 218] |
| – | – | – | 40.1 | 9.22 | 369 | – | COC1(Cn2ccc3c(-c4ccc5cnc(CNC(=O)c6ccc7c(c6)S(=O)(=O)CCOC7)cc5n4)ccnc32)CC1 [Compound 585] |
| – | – | – | 14.6 | 11.68 | 171 | – | C[C@H]1CCOc2c(F)cc(C(=O)NCc3cc4nc(N5CCOc6cccnc65)ccc4cn3)cc2S1(=O)=O [Compound 524] |
| 70.8 | 22.76 | 1610 | – | – | – | – | COCc1c(Cl)cc(C(=O)NCc2cc3nc(-c4cccc(N5C[C@@H](C)O[C@@H](C)C5)n4)ccc3cn2)cc1S(C)(=O)=O [Compound 114] |
| – | – | – | 42.1 | 26.15 | 1100 | – | C[C@H]1COCc2ccc(C(=O)NCc3cc4nc(-c5cccc([C@H]6CC6(F)F)n5)ccc4cn3)cc2S1(=O)=O [Compound 392] |
| 60.1 | 19.73 | 1180 | – | – | – | – | O=C(NCc1cc2nc(-c3cccc(C4CC4)n3)cnc2cn1)c1ccc2c(c1)S(=O)(=O)CCOC2 [Compound 191] |
| 28.8 | 9.24 | 266 | – | – | – | – | CN(c1cccc(-c2ccc3cnc(CNC(=O)c4ccc5c(c4)S(=O)(=O)CCOC5)cc3n2)n1)C1CCOCC1 [Compound 174] |
| 9.3 | – | 255 | – | – | – | 27.53 | COCc1ccc2c(c1F)N(c1ccc3cnc(CNC(=O)c4ccc5c(c4)S(=O)(=O)CCOC5)cc3n1)CCC2 [Compound 711] |
| – | – | – | 14.3 | 28.41 | 407 | – | C[C@H]1COCc2ccc(C(=O)NCc3cc4nc(-c5cccc(OC(F)F)n5)ccc4cn3)cc2S1(=O)=O [Compound 384] |
| – | – | – | 4.9 | 7.66 | 37.9 | – | COC[C@H](C)Oc1ccc2c(c1)N(c1ccc3cnc(CNC(=O)c4ccc5c(c4)S(=O)(=O)CCOC5)cc3n1)CCC2 [Compound 697] |
| 8.1 | – | 67.1 | – | – | – | 8.31 | COc1c(F)cnc2c1CCCN2c1ccc2cnc(CNC(=O)c3ccc4c(c3)S(=O)(=O)CCOC4)cc2n1 [Compound 802] |
